Test results taken from ChEMBL document CHEMBL3120141, “Discovery of (1R,6S)-5-[4-(1-cyclobutyl-piperidin-4-yloxy)-phenyl]-3,4-diaza-bicyclo[4.1.0]hept-4-en-2-one (R,S-4a): histamine H(3) receptor inverse agonist demonstrating potent cognitive enhancing and wake promoting activity” (Bioorg Med Chem Lett, 2014).

Assays:
[1] = organism: Homo sapiens; experiment: Selectivity ratio for human histamine H3 receptor over human histamine H4 receptor
[2] = organism: Homo sapiens; experiment: Selectivity ratio for human histamine H3 receptor over human histamine H2 receptor
[3] = organism: Homo sapiens; experiment: Selectivity ratio for human histamine H3 receptor over human histamine H1 receptor
[4] = molecular target: Histamine H3 receptor (Rattus norvegicus, UniProt Q9QYN8); experiment: Displacement of [3H]NAMH from rat histamine H3 receptor transfected in CHO cells; type: cell-based
[5] = molecular target: Histamine H3 receptor (Homo sapiens, UniProt Q9Y5N1); experiment: Displacement of [3H]NAMH from human histamine H3 receptor transfected in CHO cells; type: cell-based
[6] = molecular target: Cytochrome P450 3A4 (Homo sapiens, UniProt P08684); experiment: Inhibition of CYP3A4 (unknown origin); type: ADME; details: human
[7] = molecular target: Cytochrome P450 2D6 (Homo sapiens, UniProt P10635); experiment: Inhibition of CYP2D6 (unknown origin); type: ADME; details: human
[8] = molecular target: Cytochrome P450 2C9 (Homo sapiens, UniProt P11712); experiment: Inhibition of CYP2C9 (unknown origin); type: ADME; details: human
[9] = molecular target: Cytochrome P450 2C19 (Homo sapiens, UniProt P33261); experiment: Inhibition of CYP2C19 (unknown origin); type: ADME; details: human
[10] = molecular target: T1, Cytochrome P450 1A2 (Homo sapiens, UniProt P05177); experiment: Inhibition of CYP1A2 (unknown origin); type: ADME; details: human
T1 sequence (P05177 whole entry): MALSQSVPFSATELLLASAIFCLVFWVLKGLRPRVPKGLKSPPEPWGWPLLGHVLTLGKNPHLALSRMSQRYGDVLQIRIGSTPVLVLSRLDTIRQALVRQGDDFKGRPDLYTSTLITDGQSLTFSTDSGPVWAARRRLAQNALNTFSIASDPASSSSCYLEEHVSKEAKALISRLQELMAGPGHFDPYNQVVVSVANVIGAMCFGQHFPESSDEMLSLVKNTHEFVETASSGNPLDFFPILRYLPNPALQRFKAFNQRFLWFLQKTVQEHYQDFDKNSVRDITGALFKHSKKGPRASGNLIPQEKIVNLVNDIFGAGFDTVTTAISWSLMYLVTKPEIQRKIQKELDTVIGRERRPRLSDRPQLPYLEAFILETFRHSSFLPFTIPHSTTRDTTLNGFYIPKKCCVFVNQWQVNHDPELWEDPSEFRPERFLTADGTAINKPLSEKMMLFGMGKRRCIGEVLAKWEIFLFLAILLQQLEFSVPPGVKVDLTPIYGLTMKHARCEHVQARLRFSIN

[11] = tested on: Liver microsome; experiment: Metabolic stability in dog liver microsomes; type: ADME, Canis lupus familiaris
[12] = tested on: Liver microsome; experiment: Metabolic stability in human liver microsomes; type: ADME
[13] = Metabolic stability in mouse liver microsomes; type: ADME, Microsome
[14] = tested on: Liver microsome; experiment: Metabolic stability in rat liver microsomes; type: ADME

Sequence of Histamine H3 receptor (Homo sapiens, UniProt Q9Y5N1) (Q9Y5N1 whole entry): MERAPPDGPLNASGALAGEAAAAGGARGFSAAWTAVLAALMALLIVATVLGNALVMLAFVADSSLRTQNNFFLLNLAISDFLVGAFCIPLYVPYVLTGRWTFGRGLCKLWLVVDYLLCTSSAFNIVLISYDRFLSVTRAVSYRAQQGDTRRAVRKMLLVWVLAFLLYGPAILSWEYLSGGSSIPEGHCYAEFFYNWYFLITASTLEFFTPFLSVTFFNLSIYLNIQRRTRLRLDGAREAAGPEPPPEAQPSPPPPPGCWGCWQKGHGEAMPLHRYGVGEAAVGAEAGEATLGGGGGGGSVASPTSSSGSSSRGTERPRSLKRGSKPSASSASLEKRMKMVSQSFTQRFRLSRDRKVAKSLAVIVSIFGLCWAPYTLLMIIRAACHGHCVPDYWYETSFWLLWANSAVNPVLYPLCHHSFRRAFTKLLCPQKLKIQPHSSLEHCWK
Sequence of Histamine H3 receptor (Rattus norvegicus, UniProt Q9QYN8) (Q9QYN8 whole entry): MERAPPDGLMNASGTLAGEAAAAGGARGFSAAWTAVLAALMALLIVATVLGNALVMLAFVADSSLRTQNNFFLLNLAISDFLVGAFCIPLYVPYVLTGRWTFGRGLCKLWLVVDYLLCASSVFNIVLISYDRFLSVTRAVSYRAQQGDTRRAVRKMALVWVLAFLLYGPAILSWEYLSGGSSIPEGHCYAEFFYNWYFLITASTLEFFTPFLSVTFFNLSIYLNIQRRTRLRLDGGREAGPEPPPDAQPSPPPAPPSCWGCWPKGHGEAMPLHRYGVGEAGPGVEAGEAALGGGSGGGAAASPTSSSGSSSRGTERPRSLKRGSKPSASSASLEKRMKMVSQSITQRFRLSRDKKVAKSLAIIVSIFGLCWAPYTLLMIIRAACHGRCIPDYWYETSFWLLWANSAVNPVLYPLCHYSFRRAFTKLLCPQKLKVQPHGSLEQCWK
Sequence of Cytochrome P450 2C9 (P11712 whole entry): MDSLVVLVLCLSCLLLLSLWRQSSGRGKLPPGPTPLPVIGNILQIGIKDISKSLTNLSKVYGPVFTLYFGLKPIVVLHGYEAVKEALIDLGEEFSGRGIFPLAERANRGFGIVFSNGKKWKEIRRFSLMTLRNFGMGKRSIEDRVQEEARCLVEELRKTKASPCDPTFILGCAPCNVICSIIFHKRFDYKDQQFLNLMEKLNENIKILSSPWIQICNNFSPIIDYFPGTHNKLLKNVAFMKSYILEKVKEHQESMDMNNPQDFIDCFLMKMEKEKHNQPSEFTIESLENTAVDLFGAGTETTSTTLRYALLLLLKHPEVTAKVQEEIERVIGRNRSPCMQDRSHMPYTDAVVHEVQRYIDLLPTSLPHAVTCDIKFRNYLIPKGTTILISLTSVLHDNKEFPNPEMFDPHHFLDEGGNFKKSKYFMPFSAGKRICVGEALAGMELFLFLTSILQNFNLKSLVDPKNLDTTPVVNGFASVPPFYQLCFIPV
Sequence of Cytochrome P450 3A4 (P08684 whole entry): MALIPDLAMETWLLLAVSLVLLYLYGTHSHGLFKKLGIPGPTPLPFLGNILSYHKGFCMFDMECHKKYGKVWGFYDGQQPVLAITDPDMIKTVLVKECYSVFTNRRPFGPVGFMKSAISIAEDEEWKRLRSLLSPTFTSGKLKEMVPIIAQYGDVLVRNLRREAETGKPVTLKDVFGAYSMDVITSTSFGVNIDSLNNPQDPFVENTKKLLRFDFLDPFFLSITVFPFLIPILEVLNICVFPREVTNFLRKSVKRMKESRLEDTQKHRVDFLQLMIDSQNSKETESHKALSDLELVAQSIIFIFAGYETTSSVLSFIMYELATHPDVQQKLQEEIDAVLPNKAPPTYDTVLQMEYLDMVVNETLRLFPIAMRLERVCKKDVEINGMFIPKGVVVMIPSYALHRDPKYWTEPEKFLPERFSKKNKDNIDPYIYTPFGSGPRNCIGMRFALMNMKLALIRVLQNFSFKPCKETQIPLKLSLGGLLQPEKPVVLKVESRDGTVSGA
Sequence of Cytochrome P450 2C19 (P33261 whole entry): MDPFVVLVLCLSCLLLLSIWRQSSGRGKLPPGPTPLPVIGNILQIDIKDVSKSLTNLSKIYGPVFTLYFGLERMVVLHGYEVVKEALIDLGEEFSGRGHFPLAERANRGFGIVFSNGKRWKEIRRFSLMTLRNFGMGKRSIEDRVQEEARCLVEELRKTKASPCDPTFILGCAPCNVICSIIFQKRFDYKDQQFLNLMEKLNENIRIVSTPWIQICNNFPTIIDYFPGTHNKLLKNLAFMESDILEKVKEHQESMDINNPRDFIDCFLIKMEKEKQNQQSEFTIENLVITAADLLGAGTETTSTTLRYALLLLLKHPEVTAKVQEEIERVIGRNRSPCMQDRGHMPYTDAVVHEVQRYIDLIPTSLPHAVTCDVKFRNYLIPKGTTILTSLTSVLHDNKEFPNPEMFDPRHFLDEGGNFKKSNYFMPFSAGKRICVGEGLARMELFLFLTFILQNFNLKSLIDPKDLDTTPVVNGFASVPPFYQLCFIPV
Sequence of Cytochrome P450 2D6 (P10635 whole entry): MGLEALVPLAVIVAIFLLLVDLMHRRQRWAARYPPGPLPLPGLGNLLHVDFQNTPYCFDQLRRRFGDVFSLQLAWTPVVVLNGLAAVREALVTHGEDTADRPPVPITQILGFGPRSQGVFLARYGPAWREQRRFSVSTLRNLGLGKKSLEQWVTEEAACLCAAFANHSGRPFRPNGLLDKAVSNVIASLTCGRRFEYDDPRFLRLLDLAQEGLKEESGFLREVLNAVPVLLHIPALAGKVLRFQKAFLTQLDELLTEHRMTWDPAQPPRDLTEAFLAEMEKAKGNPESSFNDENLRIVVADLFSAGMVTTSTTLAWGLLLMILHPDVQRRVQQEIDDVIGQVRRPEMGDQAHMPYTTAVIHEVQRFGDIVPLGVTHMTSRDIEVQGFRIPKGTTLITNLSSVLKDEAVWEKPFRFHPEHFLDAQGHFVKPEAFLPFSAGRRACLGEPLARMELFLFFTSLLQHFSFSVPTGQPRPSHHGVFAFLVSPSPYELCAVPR

| Selectivity ratio [1] | Selectivity ratio [2] | Selectivity ratio [3] | Ki [4] | Ki [5] | inhibition (INH) [6] | inhibition (INH) [7] | inhibition (INH) [8] | inhibition (INH) [9] | inhibition (INH) [10] | Stability [11] | Stability [12] | Stability [13] | Stability [14] | Structure (SMILES) |
| --- | --- | --- | --- | --- | --- | --- | --- | --- | --- | --- | --- | --- | --- | --- |
| > 1000 | > 1000 | > 1000 | 5.7 nM | 3.6 nM | – | – | – | – | – | – | – | – | – | CN1N=C(c2ccc(OC3CCN(C4CCCC4)CC3)cc2)C2CC2C1=O (racemic) |
| – | – | – | 228 nM | 173 nM | – | – | – | – | – | – | – | – | – | CCN1CCC(Oc2ccc(C3=NNC(=O)C4CC34)cc2)CC1 (racemic) |
| > 1000 | > 1000 | > 1000 | 51 nM | 9.1 nM | Not Active | Not Active | Not Active | Not Active | Not Active | Stable | Stable | Stable | Stable | CC(C)N1CCC(Oc2ccc(C3=NNC(=O)C4CC34)cc2)CC1 (racemic) |
